Laboratory results published in ChEMBL document CHEMBL4229568, “Discovery of natural flavonoids as activators of Nrf2-mediated defense system: Structure-activity relationship and inhibition of intracellular oxidative insults” (Bioorg Med Chem, 2018).
Activity calls are given as the source filed them. The rule behind the calls is not given here.

Legend:
[1] = biological target: T1, Nuclear factor erythroid 2-related factor 2 (Homo sapiens) (UniProt Q16236); experiment: Induction of Nrf2 translocation from cytoplasm to nucleus in human BEAS2B cells at 6.25 uM after 18 hrs by DAPI staining-based immunofluorescence analysis; format: cell-based
T1 sequence (whole entry): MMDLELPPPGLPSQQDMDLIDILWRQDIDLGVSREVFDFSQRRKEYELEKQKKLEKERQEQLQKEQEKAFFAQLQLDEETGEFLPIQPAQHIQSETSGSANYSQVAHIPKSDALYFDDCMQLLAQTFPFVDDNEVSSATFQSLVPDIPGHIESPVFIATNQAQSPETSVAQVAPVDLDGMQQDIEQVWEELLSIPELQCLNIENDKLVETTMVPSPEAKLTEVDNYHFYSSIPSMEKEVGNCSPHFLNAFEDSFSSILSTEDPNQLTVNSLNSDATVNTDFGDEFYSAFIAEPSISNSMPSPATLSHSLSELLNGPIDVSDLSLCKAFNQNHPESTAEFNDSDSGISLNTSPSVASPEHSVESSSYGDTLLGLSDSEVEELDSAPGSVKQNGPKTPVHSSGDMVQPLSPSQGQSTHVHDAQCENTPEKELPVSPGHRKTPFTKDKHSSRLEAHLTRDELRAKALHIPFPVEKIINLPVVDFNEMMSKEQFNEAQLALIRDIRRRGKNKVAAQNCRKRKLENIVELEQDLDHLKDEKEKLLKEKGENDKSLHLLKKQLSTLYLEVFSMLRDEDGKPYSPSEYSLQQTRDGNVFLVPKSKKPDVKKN

[2] = biological target: T2, Nuclear factor erythroid 2-related factor 2 (Mus musculus) (UniProt Q60795); experiment: Activation of Nrf2 in mouse Heap1c1c7 cells assessed as induction of NAD(P)H:quinone reductase activity at 25 uM relative to control; format: cell-based
T2 sequence (whole entry): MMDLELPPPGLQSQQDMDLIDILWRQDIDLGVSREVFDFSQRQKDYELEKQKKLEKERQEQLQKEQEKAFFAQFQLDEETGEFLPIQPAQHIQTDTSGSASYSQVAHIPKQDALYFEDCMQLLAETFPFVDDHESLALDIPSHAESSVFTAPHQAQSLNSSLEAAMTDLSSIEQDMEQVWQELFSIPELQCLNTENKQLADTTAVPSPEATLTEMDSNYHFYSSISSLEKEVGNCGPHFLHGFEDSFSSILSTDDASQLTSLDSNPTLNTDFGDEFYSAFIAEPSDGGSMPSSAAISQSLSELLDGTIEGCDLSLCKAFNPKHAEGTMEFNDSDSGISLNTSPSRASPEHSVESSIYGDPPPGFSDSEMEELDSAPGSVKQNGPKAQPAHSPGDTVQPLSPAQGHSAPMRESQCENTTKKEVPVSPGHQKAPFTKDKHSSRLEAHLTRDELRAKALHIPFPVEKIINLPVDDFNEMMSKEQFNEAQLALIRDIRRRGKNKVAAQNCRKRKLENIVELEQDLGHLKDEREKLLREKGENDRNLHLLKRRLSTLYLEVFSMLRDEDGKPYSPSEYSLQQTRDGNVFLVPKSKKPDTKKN

[3] = biological target: T1, Nuclear factor erythroid 2-related factor 2 (Homo sapiens); experiment: Activation of Nrf2 in human MDA-MB-231 cells assessed as upregulation of Nrf2 protein expression after 16 hrs by immunoblot analysis; format: cell-based
[4] = biological target: T1, Nuclear factor erythroid 2-related factor 2 (Homo sapiens); experiment: Activation of Nrf2 in human BEAS2B cells assessed as upregulation of NQO1 protein expression at 0.31 to 20 uM after 18 hrs by immunoblot analysis; format: cell-based
[5] = biological target: T1, Nuclear factor erythroid 2-related factor 2 (Homo sapiens); experiment: Activation of Nrf2 in human BEAS2B cells assessed as upregulation of Nrf2 protein expression at 6.25 uM after 8 to 24 hrs by immunoblot analysis; format: cell-based
[6] = biological target: T1, Nuclear factor erythroid 2-related factor 2 (Homo sapiens); experiment: Activation of Nrf2 in human BEAS2B cells assessed as upregulation of NQO1 protein expression at 6.25 uM after 8 to 24 hrs by immunoblot analysis; format: cell-based
[7] = biological target: T1, Nuclear factor erythroid 2-related factor 2 (Homo sapiens); experiment: Activation of Nrf2 in human BEAS2B cells assessed as upregulation of Nrf2 protein expression at 6.25 uM after 48 hrs by immunoblot analysis; format: cell-based
BEAS-2B [8] = experiment: Cytoprotective activity in human BEAS2B cells assessed as decrease in 5 to 20 uM As(+3)-induced cell death at 6.25 uM preincubated for 8 hrs followed by As(+3) challenge and measured after 24 hrs by MTT assay; format: functional, cell-based
BEAS-2B [9] = experiment: Cytotoxicity against human BEAS2B cells assessed as decrease in cell viability at 6.25 after 24 hrs by MTT assay; format: cell-based
[10] = biological target: T1, Nuclear factor erythroid 2-related factor 2 (Homo sapiens); experiment: Inhibition of Nrf2 (unknown origin) ubiquitylation transfected in human BEAS2B cells at 6.25 uM after 6 hrs by immunoblot analysis; format: cell-based
[11] = biological target: T2, Nuclear factor erythroid 2-related factor 2 (Mus musculus); experiment: Activation of Nrf2 in mouse Heap1c1c7 cells assessed as induction of NAD(P)H:quinone reductase activity at 6.25 uM pretreated for 1 hr followed by co-treatment with PKC inhibitor Go6983 for 24 hrs; format: cell-based
[12] = biological target: T2, Nuclear factor erythroid 2-related factor 2 (Mus musculus); experiment: Activation of Nrf2 in mouse Heap1c1c7 cells assessed as induction of NAD(P)H:quinone reductase activity at 6.25 uM pretreated for 1 hr followed by co-treatment with PERK inhibitor GSK2606414 for 24 hrs; format: cell-based
[13] = biological target: T2, Nuclear factor erythroid 2-related factor 2 (Mus musculus); experiment: Activation of Nrf2 in mouse Heap1c1c7 cells assessed as induction of NAD(P)H:quinone reductase activity at 6.25 uM pretreated for 1 hr followed by co-treatment with PI3K inhibitor wortmannin for 24 hrs; format: cell-based
[14] = biological target: T1, Nuclear factor erythroid 2-related factor 2 (Homo sapiens); experiment: Activation of Nrf2 in human BEAS2B cells assessed as upregulation of Nrf2 protein expression at 6.25 uM pretreated for 1 hr followed by co-treatment with PI3K inhibitor LY294002 for 18 hrs by immunoblot analysis; format: cell-based
[15] = biological target: T1, Nuclear factor erythroid 2-related factor 2 (Homo sapiens); experiment: Activation of Nrf2 in human BEAS2B cells assessed as upregulation of Nrf2 protein expression at 6.25 uM pretreated for 1 hr followed by co-treatment with PERK inhibitor GSK2606414 for 18 hrs by immunoblot analysis; format: cell-based
[16] = biological target: T1, Nuclear factor erythroid 2-related factor 2 (Homo sapiens); experiment: Activation of Nrf2 in human BEAS2B cells assessed as upregulation of NQO1 protein expression at 6.25 uM pretreated for 1 hr followed by co-treatment with PI3K inhibitor LY294002 for 18 hrs by immunoblot analysis; format: cell-based
[17] = biological target: T1, Nuclear factor erythroid 2-related factor 2 (Homo sapiens); experiment: Activation of Nrf2 in human BEAS2B cells assessed as upregulation of NQO1 protein expression at 6.25 uM pretreated for 1 hr followed by co-treatment with p38 MAPK inhibitor SB203580 for 18 hrs by immunoblot analysis; format: cell-based
[18] = biological target: T1, Nuclear factor erythroid 2-related factor 2 (Homo sapiens); experiment: Activation of Nrf2 in human BEAS2B cells assessed as upregulation of NQO1 protein expression at 6.25 uM pretreated for 1 hr followed by co-treatment with PKC inhibitor Ro-31-8220 for 18 hrs by immunoblot analysis; format: cell-based
[19] = biological target: T1, Nuclear factor erythroid 2-related factor 2 (Homo sapiens); experiment: Activation of Nrf2 in human BEAS2B cells assessed as upregulation of NQO1 protein expression at 6.25 uM pretreated for 1 hr followed by co-treatment with PKC inhibitor Go6983 for 18 hrs by immunoblot analysis; format: cell-based
[20] = biological target: T1, Nuclear factor erythroid 2-related factor 2 (Homo sapiens); experiment: Activation of Nrf2 in human BEAS2B cells assessed as upregulation of NQO1 protein expression at 6.25 uM pretreated for 1 hr followed by co-treatment with PERK inhibitor GSK2606414 for 18 hrs by immunoblot analysis; format: cell-based

Activity [1]: Active
fold change (FC) [2]: 2.08
Activity [3]: Dose-dependent effect
Activity [4]: Dose-dependent effect
Activity [5]: Active
Activity [6]: Active
Activity [7]: inactive
inhibition [10]: Active
Activity [11]: inactive
Activity [12]: inactive
Activity [13]: Active
Activity [14]: inactive
Activity [15]: inactive
Activity [16]: inactive
Activity [17]: inactive
Activity [18]: inactive
Activity [19]: inactive
Activity [20]: inactive
Compound: COc1ccc(-c2coc3cc(OC)cc(O)c3c2=O)cc1 [4',7-DIMETHOXY-5-HYDROXYGENISTEIN]
Activity (BEAS-2B [8]): Active
Activity (BEAS-2B [9]): Non-Toxic
